In patent US10722575B2, “Use of 1,3-diphenylprop-2-en-1-one derivatives for treating liver disorders” (GENFIT, priority 2009, dated 2020):
Marks after values point to notes of the source that are not given here.

Tests used:
[1] = test system: human primary hepatic stellate cells (hHSC); assay: TGFβ1-induced hHSC activation, gene expression by quantitative PCR; type: cell-based; conditions: TGFβ1 1 ng/ml, 24 hours; for Inhibition of the TGFβ1-induced hHSC activation: Col1α1 / Inhibition of the TGFβ1-induced hHSC activation: Col4α1 / Inhibition of the TGFβ1-induced hHSC activation: αSMA: 10 μM; for inhibition at 10 µM: Homo sapiens
Experimental: (§1) Compounds were dissolved in dimethyl sulfoxide (DMSO, Fluka cat #41640)
(§2) The human primary hepatic stellate cells (hHSC) (ScienCell) were cultured in STeCM medium (ScienCell cat #5301) that was supplemented with 2% fetal bovine serum (FBS, ScienCell cat #0010), 1% penicillin/streptomycine (ScienCell cat #0503) and stellate cell growth supplement (SteCGS; ScienCell cat #5352). Culture plastics were coated with Poly-L Lysine (Sigma cat # P4707).
The human primary hepatic stellate cells (hHSC) (ScienCell) were cultured under standard conditions, as described above. For experiments to determine gene expression patterns, hHSC were plated at a density of 7×10^4 cells/well into 24-well plates and were cultured overnight. Next day, culture medium was replaced by serum-free and SteCGS-free medium for an additional 16 hours. Cells were treated with a compound of General Formula (I) in addition to TGFβ1 (1 ng/ml) in a serum-free and SteCGS-free medium for 24 hours.
Total RNA was isolated using Nucleospin® 96 RNA kit (Macherey Nagel) following manufacturer's instructions. 100 ng of total RNA were reverse transcribed in cDNA using M-MLV RT (Moloney Murine Leukemia Virus Reverse Transcriptase) (Invitrogen cat #28025) in presence of RT buffer 1× (Invitrogen), 1 mM DTT (Invitrogen), 0.18 mM dNTPs (Promega), 200 ng pdN6 (Amersham) and 30U of RNase inhibitor (Promega).
Quantitative PCR was then carried out using the CFX96 TOUCH™ Real-Time PCR Detection System (Biorad). Briefly, PCR reactions were performed in 96 well plates on 5 μl of 5× diluted reverse transcription mix using the iQ SYBR Green Supermix kit. The experimental conditions were: 25 μl of volume reaction, 3 mM of MgCl2, and 0.5 μl each of reverse and forward primers (10 pMol).
Expression levels were normalized using the expression of 36B4 gene as reference (sequences SEQ ID NO: 1 and SEQ ID NO: 2 as shown above).
For each gene, the standard curves were drawn by selecting the best points (at least three points) in order to have PCR reaction efficiency close to 100% and a correlation coefficient close to 1. Expression levels were determined using the standard curve equation for both the housekeeping gene and the target gene (taking into account the specific PCR efficiency of each target gene).

[2] = test system: human primary hepatic stellate cells (hHSC); assay: PDGF-BB-induced hHSC proliferation, BrdU incorporation; type: cell-based; conditions: PDGF-BB 10 ng/ml; for Inhibition of the PDGF-BB-induced hHSC proliferation: BrdU Incorporation: 10 μM
Experimental: as §1, §2
hHSC were plated at a density of 1.2×10^4 cells/well into 96-well plates and were cultured overnight at 37° C. and 5% CO2, followed by washing of cells with PBS (Invitrogen cat #14190) and replacing the growth medium with a serum-free and SteCGS-free medium for an additional 24 hours. For PDGF-induced proliferation assay, cells were pre-treated with a compound of General Formula (I) for 1 hour before the addition of PDGF-BB (10 ng/ml; R&D Systems cat #520-BB). Treatments were then continued for additional 20 hours.
Cell proliferation was measured by bromodeoxyuridine (BrdU) incorporation using a BrdU labeling and detection kit (Roche cat #11647229001). BrdU labeling solution was added to cells, followed by incubation for another 4 hours before fixation, addition of nucleases, addition of anti-BrdU-POD and peroxidase substrate. The absorbance at 405 nm (with a reference wavelength at 690 nm) was measured using an ELISA plate reader (Tecan).

| Compound | Inhibition of the TGFβ1-induced hHSC activation: Col1α1 [1] | Inhibition of the TGFβ1-induced hHSC activation: Col4α1 [1] | Inhibition of the TGFβ1-induced hHSC activation: αSMA [1] | Inhibition of the PDGF-BB-induced hHSC proliferation: BrdU Incorporation [2] | inhibition at 10 µM ([1]; read-out: Inhibition of the TGFβ1-induced hHSC activation: Col1α1) | inhibition at 10 µM ([1]; read-out: Inhibition of the TGFβ1-induced hHSC activation: Col4α1) | inhibition at 10 µM ([1]; read-out: Inhibition of the TGFβ1-induced hHSC activation: αSMA) | inhibition at 10 µM ([2]; Homo sapiens) |
| --- | --- | --- | --- | --- | --- | --- | --- | --- |
| Cc1cc(C=CC(=O)c2ccc(OCCC3CCCCC3)cc2)cc(C)c1OC(C)(C)C(=O)O [Cpd 11 WO2005073184, 1-(4-Cyclohexylethyloxyphenyl)-3-(4-carboxydimethylmethyloxy-3,5-dimethylphenyl)prop-2-en-1-one] | −66% ** | −78% *** | −92% *** | −6%^ | – | – | – | – |
| Cc1cc(C=CC(=O)c2ccc(Cl)cc2)cc(C)c1OC(C)(C)C(=O)O [Cpd 17 WO2004OO5233, 1-[4-chlorophenyl]-3-[3,5-dimethyl-4-carboxydimethylmethyloxyphenyl]prop-2-en-1-one] | −29% | −56% *** | −30% *** | 6% | – | – | – | – |
| CCCCCCOc1ccc(C(=O)C=Cc2cc(C)c(OC(C)(C)C(=O)O)c(C)c2)cc1 [Cpd 33 WO2004OO5233, 1-[4-hexyloxyphenyl]-3-[3,5-dimethyl-4-carboxydimethylmethyloxyphenyl]prop-2-en-1-one] | −58% * | −73% *** | −71% *** | 35%^ | – | – | – | – |
| Cc1cc(C=CC(=O)c2ccc(Oc3ccccc3)cc2)cc(C)c1OC(C)(C)C(=O)O [Cpd 33 WO2005073184, 1-(4-Phenyloxyphenyl)-3-(4-carboxydimethylmethyloxy-3,5-dimethylphenyl)prop-2-en-1-one] | −37% | 12% ^ | −49% *** | −127% *** | – | – | – | – |
| Cc1cc(C=CC(=O)c2ccc(Br)cc2)cc(C)c1OC(C)(C)C(=O)O [Cpd 41 WO2004OO5233, 1-[4-bromophenyl]-3-[3,5-dimethyl-4-carboxydimethylmethyloxyphenyl]prop-2-en-1-one] | −28% | −32% ** | −2% | −34% | – | – | – | – |
| Cc1cc(C=CC(=O)c2ccc(SC(F)(F)F)cc2)cc(C)c1OC(C)(C)C(=O)O [Cpd 54 US20070032543, 1-[4-trifluoromethylthiophenyl]3-[3,5-dimethyl-4-carboxydimethymethyoxyphenyl]prop-2-en-1-one] | −27% | −40% *** | −57% *** | 12%^ | – | – | – | – |
| CCc1cc(C=CC(=O)c2ccc(C(C)C)cc2)cc(CC)c1OC(C)(C)C(=O)O [Cpd 56 US20070032543, 1-[4-isopropylphenyl]-3-[3,5-diethyl-4-carboxydimethylmethyloxyphenyl]prop-2-en-1-one] | −62% ** | −66% *** | −87% *** | −127% *** | – | – | – | – |
| Cc1cc(C=CC(=O)c2ccc(C(F)(F)F)cc2)cc(C)c1OC(C)(C)C(=O)O [Cpd 58 US20070032543, 1-[4-trifluoromethylphenyl]-3-[3,5-dimethyl-4-carboxydimethylmethyloxyphenyl]prop-2-en-1-one] | 55% * | −3% | 5%^ | −5%^ | – | – | – | – |
| CSc1ccc(C(=O)C=Cc2cc(C)c(OCC(=O)O)c(C)c2)cc1 [Cpd 72 US20070032543, 1-[4-methylthiophenyl]-3-[3,5-dimethyl-4-carboxymethyloxyphenyl]prop-2-en-1-one] | – | – | – | – | 37% | 51% | 74% | 126% |
| CSc1ccc(C(=O)C=Cc2cc(C(C)C)c(OCC(=O)O)c(C(C)C)c2)cc1 [Cpd 74 US20070032543, 1-[4-methylthiophenyl]-3-[3,5-diisopropyl-4-carboxymethyloxyphenyl]prop-2-en-one] | −82% *** | −85% *** | −97% *** | −127% *** | – | – | – | – |
| COc1ccc(C(=O)C=Cc2cc(C)c(OC(C)(C)C(=O)O)c(C)c2)cc1 [Cpd 80 US20070032543, 1-[4-methyoxyphenyl]-3-[3,5-dimethyl-4-carboxydimethylmethyloxyphenyl]prop-2-en-1-one] | −64% ** | −66% *** | −55% *** | −136% *** | – | – | – | – |
| CCCCCCSc1ccc(C(=O)C=Cc2cc(C)c(OC(C)(C)C(=O)O)c(C)c2)cc1 [Cpd 84 US20070032543, 1-[4-hexylthiophenyl]-3-[3,5-dimethyl-4-carboxydimethylmethyloxyphenyl]prop-2-en-1-one] | −60% ** | −64% *** | −64% *** | −33% | – | – | – | – |
